The term Cmax denotes the maximum level reached in the sampled fluid or tissue.

Results on four molecules are retold here after patent publication US6686382B2, “Sulfonamides and derivatives thereof that modulate the activity of endothelin” (Encysive Pharmaceuticals Inc., priority 1999, dated 2004).

For data set [1], the target named is T1, human ETA receptors (Homo sapiens, UniProt P25101).
T1 construct: endogenous in cells; host or cells: TE 671 cells (ATCC HTB 139), membrane preparation
T1 sequence (P25101 21-427): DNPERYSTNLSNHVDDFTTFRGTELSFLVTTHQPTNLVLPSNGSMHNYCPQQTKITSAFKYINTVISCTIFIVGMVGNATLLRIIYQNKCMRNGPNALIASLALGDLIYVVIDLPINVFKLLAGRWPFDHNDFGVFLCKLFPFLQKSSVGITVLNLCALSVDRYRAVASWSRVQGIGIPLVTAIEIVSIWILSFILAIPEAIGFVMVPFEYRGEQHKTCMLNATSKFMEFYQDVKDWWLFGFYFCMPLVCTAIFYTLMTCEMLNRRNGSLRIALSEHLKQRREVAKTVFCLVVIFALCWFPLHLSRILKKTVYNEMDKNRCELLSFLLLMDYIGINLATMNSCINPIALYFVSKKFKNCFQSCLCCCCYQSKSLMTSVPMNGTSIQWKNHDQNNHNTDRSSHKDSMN
In words: Endothelin binding inhibition, Binding Test #1: inhibition of binding to ETA receptors (TE 671 cell membranes). The conditions noted are these: relative to N-(4-chloro-3-methyl-5-isoxazolyl)-2-{[3,4-(methylenedioxy)-6-methylphenyl)acetyl]-thiophene-3-sulfonamide (= 1.0). From the text: Compounds that are potential endothelin antagonists are identified by testing their ability to compete with ^125I-labeled ET-1 for binding to human ETA receptors or ETB receptors present on isolated cell membranes. The effectiveness of the test compound as an antagonist or agonist of the biological tissue response of endothelin can also be assessed by measuring the effect on endothelin induced contraction of isolated rat thoracic aortic rings. The ability of the compounds to act as antagonists or agonists for ETB receptors can be assess by testing the ability of the compounds are to inhibit endothelin-1 induced prostacyclin release from cultured bovine aortic endothelial cells.
A. Endothelin Binding Inhibition—Binding Test #1: Inhibition of Binding to ETA Receptors
TE 671 cells (ATCC Accession No. HTB 139) express ETA receptors. These cells were grown to confluence in T-175 flasks. Cells from multiple flasks were collected by scraping, pooled and centrifugedfor 10 min at 190×g. The cells were resuspended in phosphate buffered saline (PBS) containing 10 mM EDTA using a Tenbroeck homogenizer. The suspension was centrifuged at 4° C. at 57,800×g for 15 min, the pellet was resuspended in 5 ml of buffer A (5 mM HEPES buffer, pH 7.4 containing aprotinin (100 KIU/ml)) and then frozen and thawed once. 5 ml of Buffer B (5 mM HEPES Buffer, pH 7.4 containing 10 mM MnCl2 and 0.001% deoxyribonuclease Type 1) was added, the suspension mixed by inversion and then incubated at 37° C. for 30 minutes. The mixture was centrifuged at 57,800×g as described above, the pellet washed twice with buffer A and then resuspended in buffer C (30 mM HEPES buffer, pH 7.4 containing aprotinin (100 KIU/ml) to give a final protein concentration of 2 mg/ml and stored at −70° C. until use.
The membrane suspension was diluted with binding buffer (30 mM HEPES buffer, pH 7.4 containing 150 mM NaCl, 5 mM MgCl2, 0.5% Bacitracin) to a concentration of 8 μg/50 μl. ^125I-endothelin-1 (3,000 cpm, […]) was added to 50 μL of either: (A) endothelin-1 (for non specific binding) to give a final concentration 80 nM); (B) binding buffer (for total binding); or (C) a test compound (final concentration 1 nM to 100 μM). The membrane suspension (50 μL), containing up to 8 μg of membrane protein, was added to each of (A), (B), or (C). Mixtures were shaken, and incubated at 4° C. for 16-18 hours, and then centrifuged at 4° C. for 25 min at 2,500×g. Alternatively, the incubation was conducted at 24° C. […] This, must be kept in mind when comparing IC50 concentrations among compounds provided herein.
The supernatant, containing unbound radioactivity, was decanted and the pellet counted on a Genesys multiwell gamma counter. The degree of inhibition of binding (D) was calculated according to the following equation: [formula]
Each test was generally performed in triplicate.

Data set [2] in a line: Pharmacokinetic properties (oral availability, elimination half-life, Cmax). Type of data set: in vivo. Conditions: for half-life: blood, read-out: t½ elim. (converted). From the text: As used herein, bioavailability or oral availability refers to the rate and extent of absorption. Methods for determining bioavailability or oral availability are well known to those of skill in the art. For example, bioavailability or oral availability of any of the compounds described herein can be determined empirically by administration of the compound to an animal, followed by taking blood samples over time and measuring the blood concentration of the compound. In vivo half life (t1/2) is defined as the time it takes for the concentration of the compound in the blood to be reduced by one-half. Estimations of the area under the curve for intravenous administration can be used to estimate the area under the curve for oral administration, yielding bioavailability data. See, e.g., Milo Gibal (1991) Biopharmaceutics and Pharmacology, 4th edition (Lea and Sediger).

Each structure is given as a SMILES string.

Take `Cc1cc(C)c(NC(=O)c2sccc2S(=O)(=O)Nc2onc(C)c2Cl)c(S(C)(=O)=O)c1` [Compound 42, 3-{[(4-chloro-3-methyl-5-isoxazolyl)amino]sulfonyl)-N-[2,4-dimethyl-6-(methylsulfonyl)phenyl]-2-thiophenecarboxamide]: the “ETA ACTIVITY (ETA antagonist activity relative to reference compound)” value in data set [1] was determined as 64.1. The half-life in data set [2] is 90 min. In addition, in data set [2] (in vivo), the peak level (Cmax) was 10.3 µg/mL.

Take `CC(=O)c1cc(C)cc(C)c1NC(=O)c1sccc1S(=O)(=O)Nc1onc(C)c1C` [Compound 7, N-(2-acetyl-4,6-dimethylphenyl)-3-{[(3,4 dimethyl-5-isoxazolyl)amino]sulfonyl}-2-thiophenecarboxamide]: the “ETA ACTIVITY (ETA antagonist activity relative to reference compound)” value in data set [1] came out at 18.1. Moreover, in data set [2], the half-life was 360 min. For the same molecule, in data set [2] (in vivo), the peak level (Cmax) was 157 µg/mL and the “Oral Availability” value was found to be 148.1%.

With `Cc1cc(C)c(NC(=O)c2sccc2S(=O)(=O)Nc2onc(C)c2Cl)c(Cl)c1` [Compound 34, N-(2-chloro-4,6-dimethylphenyl)-3-{[(4-chloro-3-methyl-5-isoxazolyl)amino]sulfonyl}2-thiophenecarboxamide], the “ETA ACTIVITY (ETA antagonist activity relative to reference compound)” value in data set [1] was found to be 20.7. In addition, the half-life in data set [2] is 156 min. For the same molecule, in data set [2] (in vivo), the maximum concentration (Cmax) stood at 49.5 µg/mL.

For `Cc1cc2c(cc1CC(=O)c1sccc1S(=O)(=O)Nc1onc(C)c1Cl)OCO2` [N-(4-chloro-3-methyl-5-isoxazolyl)-2-{[3,4-(methylenedioxy)-6-methylphenyl)acetyl]-thiophene-3-sulfonamide, reference compound], the “ETA ACTIVITY (ETA antagonist activity relative to reference compound)” value in data set [1] is recorded as 1.0. Besides, in data set [2] (in vivo), the Cmax is 133 µg/mL, the t½ elim. came out at 4.5 h and the “Oral Availability” value is recorded as 43.6%.
